These results are taken from patent publication US6133294A (priority 1999, dated 2000).

SMILES strings stand for the structures.

Holding throughout (assay type): in vivo
The test system of one assay is Erysiphe graminis. Kind of assay: Powdery Mildew of Wheat (Erysiphe graminis--ERYSGT). To be noted: wheat (cultivar Monon), 100 ppm spray to run off, inoculated after 24 hours; for pest or weed control at 100 ppm: Blumeria graminis, 1DP, read-out: control of plant disease, ERYSGT 1DP. The protocol: (§1) Compound Formulation: Compound formulation was accomplished by dissolving technical materials in acetone, with serial dilutions then made in acetone to obtain desired rates. Final treatment volumes were obtained by adding nine volumes 0.05% aqueous Tween-20 or Triton X-100, depending upon the pathogen.
Powdery Mildew of Wheat (Erysiphe graminis--ERYSGT): Wheat (cultivar Monon) was grown in a soilless peat-based potting mixture (Metromix) until the seedlings were 1-2 leaf (BBCH 12). These plants were then sprayed to run off with the test compound at a rate of 100 ppm. After 24 hours the test plants were inoculated with Erysiphe graminis by dusting spores from stock plants onto the test plants. The plants were then transferred to the greenhouse until disease developed on the untreated control plants.
(§2) the following table presents the activity of typical compounds of the present invention when evaluated in these experiments. The effectiveness of the test compounds in controlling disease was rated using the following scale: […]

For a further assay, the system named is Leptosphaeria nodorum. The assay is described as follows: Glume blotch of wheat (Leptosphaeria nodorum--LEPTNO). To be noted: wheat (cultivar Monon), 100 ppm spray to run off, inoculated after 24 hours; for pest or weed control at 100 ppm: Parastagonospora nodorum, 1DP, read-out: control of plant disease, LEPTNO 1DP. The protocol:
as §1
Glume blotch of wheat (Leptosphaeria nodorum--LEPTNO): Wheat (cultivar Monon) was grown from seed in a soilless peat-based potting mixture (Metromix) until the seedlings were 1-2 leaf (BBCH 12). These plants were then sprayed to run off with the test compound at a rate of 100 ppm. After 24 hours the test plants were inoculated with an aqueous spore suspension of Leptosphaeria nodorum. The plants were then transferred to the greenhouse until disease developed on the untreated control plants.
as §2

A further assay relates to Phytophthora infestans. The assay is described as follows: whole plant or invertebrate. The note with it: for pest or weed control at 100 ppm: Phytophthora infestans, 24 h, read-out: control of plant disease, PHYTIN 1DP; for control of plant disease, PHYTIN 1DP: tomatoes (cultivar Rutgers), 100 ppm spray to run off, inoculated after 24 hours.
For another assay, the system named is Puccinia recondita. The assay is described as follows: Brown rust (Puccinia recondita--PUCCRT). The note with it: wheat (cultivar Monon), 100 ppm spray to run off, inoculated after 24 hours; for pest or weed control at 100 ppm: Puccinia recondita, 1DP, read-out: control of plant disease, PUCCRT 1DP. The protocol:
as §1
Brown rust (Puccinia recondita--PUCCRT): Wheat (cultivar Monon) was grown from seed in a soilless peat-based potting mixture (Metromix) until the seedlings were […]). These plants were then sprayed to run off with the test compound at a rate of 100 ppm. After 24 hours the test plants were inoculated with an aqueous spore suspension of Puccinia recondita. The plants were then transferred to the greenhouse until disease developed on the untreated control plants.
as §2

`CNC(=O)C(=NOC)c1ccccc1COc1ncc(-c2nc(C3CC3)no2)cc1Cl` [Example 53]: the pest or weed control at 100 ppm lay in the range of 75 to 100% in the assay with Erysiphe graminis, 25 to 74% in the assay on Leptosphaeria nodorum, 75 to 100% in the assay on Phytophthora infestans and 75 to 100% in the assay on Puccinia recondita.

With `CCc1noc(-c2cnc(OCc3ccccc3C(=NOC)C(=O)NC)c(Cl)c2)n1` [Example 54], the pest or weed control at 100 ppm with Erysiphe graminis, in the assay with Leptosphaeria nodorum, in the assay on Phytophthora infestans and in the assay on Puccinia recondita was 75 to 100% throughout.

`CNC(=O)C(=NOC)c1ccccc1COc1ncc(-c2nc(N(C)C)no2)cc1Cl` [Example 64]: the pest or weed control at 100 ppm is 75 to 100% in the assay with Erysiphe graminis, 75 to 100% in the assay on Leptosphaeria nodorum, 0 to 24% with Phytophthora infestans and 75 to 100% with Puccinia recondita.

Regarding `CNC(=O)C(=NOC)c1ccccc1COc1ccc(-c2nc(C(C)(C)C)no2)cn1` [Example 65], the pest or weed control at 100 ppm in the assay on Erysiphe graminis was 75 to 100%; in the assay with Leptosphaeria nodorum, 75 to 100%; in the assay on Phytophthora infestans, 0 to 24%; in the assay with Puccinia recondita, 75 to 100%.

For the molecule `CNC(=O)C(=NOC)c1ccccc1COc1ncc(-c2nc(C(F)(F)F)no2)cc1Cl` [Example 68], the pest or weed control at 100 ppm with Erysiphe graminis was in the range of 75 to 100%; in the assay on Leptosphaeria nodorum it was 75 to 100%; in the assay with Phytophthora infestans, 0 to 24%; with Puccinia recondita it was 75 to 100%.

Turning to `CNC(=O)C(=NOC)c1ccccc1COc1ncc(-c2nc(N3CCCCC3)no2)cc1Cl` [Example 69], the “control of plant disease, ERYSGT 1DP” value in the assay on Erysiphe graminis is given as “++ (75-100% control of plant disease)”. Moreover, in the assay on Leptosphaeria nodorum, the “control of plant disease, LEPTNO 1DP” value is “++ (75-100% control of plant disease)”. Further, in the assay with Phytophthora infestans, the “control of plant disease, PHYTIN 1DP” value was “++ (75-100% control of plant disease)”. Also, the “control of plant disease, PUCCRT 1DP” value in the assay on Puccinia recondita is reported as “++ (75-100% control of plant disease)”.

For the molecule `CNC(=O)C(=NOC)c1ccccc1COc1ccc(-c2nc(C(C)C)no2)cn1` [Example 70], the pest or weed control at 100 ppm in the assay on Erysiphe graminis was 75 to 100%; in the assay with Leptosphaeria nodorum, 75 to 100%; with Phytophthora infestans, 0 to 24%; in the assay on Puccinia recondita it was 75 to 100%.

Turning to `CNC(=O)C(=NOC)c1ccccc1COc1ccc(-c2nc(C(F)(F)F)no2)cn1` [Example 71], the pest or weed control at 100 ppm was 75 to 100% with Erysiphe graminis, 0 to 24% in the assay on Leptosphaeria nodorum, 75 to 100% in the assay with Phytophthora infestans and 75 to 100% with Puccinia recondita.

Regarding `CNC(=O)C(=NOC)c1ccccc1COc1ncc(-c2nc(C3CCCCC3)no2)cc1Cl` [Example 72], the pest or weed control at 100 ppm with Erysiphe graminis lay in the range of 0 to 24%; in the assay with Leptosphaeria nodorum it was 0 to 24%; in the assay on Phytophthora infestans it was 0 to 24%; with Puccinia recondita, 75 to 100%.

Consider `CNC(=O)C(=NOC)c1ccccc1COc1ccc(-c2nc(C3CCCCC3)no2)cn1` [Example 73], for which the pest or weed control at 100 ppm lay in the range of 75 to 100% in the assay on Erysiphe graminis, 0 to 24% in the assay with Leptosphaeria nodorum, 25 to 74% in the assay on Phytophthora infestans and 75 to 100% in the assay on Puccinia recondita.

Take `CCCc1noc(-c2ccc(OCc3ccccc3C(=NOC)C(=O)NC)nc2)n1` [Example 74]: the pest or weed control at 100 ppm with Erysiphe graminis lay within 75 to 100%; in the assay on Leptosphaeria nodorum it was 0 to 24%; in the assay with Phytophthora infestans, 0 to 24%; with Puccinia recondita, 75 to 100%.

Regarding `CNC(=O)C(=NOC)c1ccccc1COc1ccc(-c2nc(CC(C)C)no2)cn1` [Example 75], the pest or weed control at 100 ppm in the assay on Erysiphe graminis lay in the range of 75 to 100%; with Leptosphaeria nodorum, 25 to 74%; in the assay on Phytophthora infestans it was 0 to 24%; in the assay with Puccinia recondita, 75 to 100%.

In the case of `CCc1cc(-c2cnc(OCc3ccccc3C(=NOC)C(=O)NC)c(Cl)c2)on1` [Example 76], the pest or weed control at 100 ppm in the assay on Erysiphe graminis lay in the range of 75 to 100%; in the assay with Leptosphaeria nodorum it was 75 to 100%; in the assay on Phytophthora infestans, 25 to 74%; with Puccinia recondita, 75 to 100%.

For `CNC(=O)C(=NOC)c1ccccc1COc1ncc(-c2nc(CC(C)C)no2)cc1Cl` [Example 77], the pest or weed control at 100 ppm in the assay with Erysiphe graminis lay within 75 to 100%; with Leptosphaeria nodorum it was 75 to 100%; with Phytophthora infestans, 0 to 24%; with Puccinia recondita, 75 to 100%.

For `CCCc1noc(-c2cnc(OCc3ccccc3C(=NOC)C(=O)NC)c(Cl)c2)n1` [Example 78], the pest or weed control at 100 ppm was 75 to 100% in the assay on Erysiphe graminis, 75 to 100% with Leptosphaeria nodorum, 0 to 24% with Phytophthora infestans and 75 to 100% with Puccinia recondita.

As for `CCc1noc(-c2nc(OCc3ccccc3C(=NOC)C(=O)NC)ccc2Cl)n1` [Example 81], the pest or weed control at 100 ppm in the assay with Erysiphe graminis lay within 75 to 100%; in the assay on Leptosphaeria nodorum it was 25 to 74%; in the assay with Phytophthora infestans, 25 to 74%; in the assay with Puccinia recondita it was 75 to 100%.

In the case of `CNC(=O)C(=NOC)c1ccccc1COc1ccc(Cl)c(-c2nc(C(C)(C)C)no2)n1` [Example 82], the pest or weed control at 100 ppm with Erysiphe graminis, in the assay with Leptosphaeria nodorum, with Phytophthora infestans and in the assay on Puccinia recondita was 75 to 100% in each case.

With `CCc1noc(-c2cccc(OCc3ccccc3C(=NOC)C(=O)NC)n2)n1` [Example 83], the pest or weed control at 100 ppm in the assay on Erysiphe graminis is 25 to 74%; with Leptosphaeria nodorum, 75 to 100%; with Phytophthora infestans, 75 to 100%; in the assay with Puccinia recondita, 75 to 100%.

With `CNC(=O)C(=NOC)c1ccccc1COc1cccc(-c2nc(C(C)(C)C)no2)n1` [Example 84], the pest or weed control at 100 ppm lay within 25 to 74% in the assay on Erysiphe graminis, 75 to 100% with Leptosphaeria nodorum, 75 to 100% in the assay on Phytophthora infestans and 75 to 100% with Puccinia recondita.

Turning to `CCc1noc(-c2cccc(OCc3ccccc3C(=NOC)C(=O)NC)n2)n1` [Example 85], the “control of plant disease, ERYSGT 1DP” value with Erysiphe graminis is recorded as “+ (25-74% control of plant disease)”. The “control of plant disease, LEPTNO 1DP” value in the assay with Leptosphaeria nodorum is recorded as “- (0-24% control of plant disease)”. The “control of plant disease, PHYTIN 1DP” value in the assay on Phytophthora infestans is reported as “- (0-24% control of plant disease)”. In the assay on Puccinia recondita, the “control of plant disease, PUCCRT 1DP” value is reported as “++ (75-100% control of plant disease)”.

Turning to `CNC(=O)C(=NOC)c1cccc(Cl)c1COc1cccc(-c2nc(C(C)(C)C)no2)n1` [Example 86], the “control of plant disease, ERYSGT 1DP” value with Erysiphe graminis was “++ (75-100% control of plant disease)”. Besides, the “control of plant disease, LEPTNO 1DP” value in the assay with Leptosphaeria nodorum is on record as “- (0-24% control of plant disease)”. Also, the “control of plant disease, PHYTIN 1DP” value in the assay with Phytophthora infestans is on record as “+ (25-74% control of plant disease)”. In addition, the “control of plant disease, PUCCRT 1DP” value in the assay on Puccinia recondita was “++ (75-100% control of plant disease)”.

For `CNC(=O)C(=NOC)c1ccccc1COc1cccc(-c2nc(C(C)C)no2)n1` [Example 87], the pest or weed control at 100 ppm with Erysiphe graminis, with Leptosphaeria nodorum, in the assay with Phytophthora infestans and in the assay on Puccinia recondita was 75 to 100% each time.

Turning to `CNC(=O)C(=NOC)c1cccc(F)c1COc1cccc(-c2nc(C(C)(C)C)no2)n1` [Example 88], the “control of plant disease, ERYSGT 1DP” value with Erysiphe graminis was “++ (75-100% control of plant disease)”. Also, the “control of plant disease, LEPTNO 1DP” value in the assay on Leptosphaeria nodorum is given as “++ (75-100% control of plant disease)”. In the assay on Phytophthora infestans, the “control of plant disease, PHYTIN 1DP” value is recorded as “++ (75-100% control of plant disease)”. The “control of plant disease, PUCCRT 1DP” value with Puccinia recondita was “++ (75-100% control of plant disease)”.

For `CNC(=O)C(=NOC)c1ccccc1COc1cccc(-c2nc(C(F)(F)F)no2)n1` [Example 89], the pest or weed control at 100 ppm in the assay with Erysiphe graminis is 0 to 24%; in the assay with Leptosphaeria nodorum, 0 to 24%; in the assay on Phytophthora infestans, 75 to 100%; in the assay with Puccinia recondita, 75 to 100%.

As for `CON=C(C(=O)OC)c1ccccc1COc1ncc(-c2noc(C(C)(C)C)n2)cc1Cl` [Example 97], the pest or weed control at 100 ppm in the assay with Erysiphe graminis, in the assay with Leptosphaeria nodorum, in the assay with Phytophthora infestans and with Puccinia recondita was 75 to 100% throughout.

In the case of `COC=C(C(=O)OC)c1ccccc1COc1ncc(-c2noc(C(C)(C)C)n2)cc1Cl` [Example 98], the pest or weed control at 100 ppm is 75 to 100% with Erysiphe graminis, 75 to 100% with Leptosphaeria nodorum, 0 to 24% in the assay on Phytophthora infestans and 75 to 100% in the assay with Puccinia recondita.

On to `CCc1noc(-c2cnc(OCc3ccccc3C(=COC)C(=O)OC)c(Cl)c2)n1` [Example 99], for which the pest or weed control at 100 ppm was 75 to 100% in the assay with Erysiphe graminis, 75 to 100% in the assay on Leptosphaeria nodorum, 25 to 74% in the assay with Phytophthora infestans and 75 to 100% in the assay with Puccinia recondita.
